Measured values published in patent publication US6358885B1, “Substituted phenylheterocyclic herbicides” (Mississippi State University, priority 1992, dated 2002).

Experiments:
cotton = assay: Test B preemergence/postemergence greenhouse plant response rating 0 to 10; assay type: in vivo, Gossypium hirsutum; details: 0 to 10 scale
Procedure, shortened: (§1)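 Planted seeds are treated preemergence with compound dissolved in a non-phytotoxic solvent, while postemergence applications go onto plants of two to eighteen cm. Plants stay in the greenhouse twelve to sixteen days and are then rated visually relative to controls.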

crabgrass = assay: Test C preemergence/postemergence greenhouse plant response rating 0 to 100; assay type: in vivo, Digitaria sanguinalis; details: POSTEMERGENCE
Procedure, shortened: (§2)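 Compounds in non-phytotoxic solvent applied preemergence to sandy loam one day after planting, postemergence at the 1–4 leaf stage, or to ~2.5 cm floodwater over silt loam.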

ryegrass = assay: as above; assay type: in vivo, Lolium multiflorum; details: POSTEMERGENCE
Procedure, shortened: as §2

sorghum [1] = assay: as above; assay type: in vivo, Sorghum bicolor; details: POSTEMERGENCE
Procedure, shortened: as §2

lambsquarters = assay: Test B preemergence/postemergence greenhouse plant response rating 0 to 10; assay type: in vivo, Chenopodium album; details: 0 to 10 scale
Procedure, shortened: as §1

rape = assay: Test C preemergence/postemergence greenhouse plant response rating 0 to 100; assay type: in vivo, Brassica napus; details: POSTEMERGENCE
Procedure, shortened: as §2

bedstraw = assay: Test B preemergence/postemergence greenhouse plant response rating 0 to 10; assay type: in vivo, Galium aparine; details: 0 to 10 scale
Procedure, shortened: as §1

sorghum [2] = assay: as above; assay type: in vivo, Sorghum bicolor; details: 0 to 10 scale
Procedure, shortened: as §1

wheat [3] = assay: as above; assay type: in vivo, Triticum aestivum; details: 0 to 10 scale
Procedure, shortened: as §1

barnyardgrass = assay: Test C flood test plant response rating 0 to 100; assay type: in vivo, Echinochloa crus-galli
Procedure, shortened: as §2

wild oat [4] = assay: Test C preemergence/postemergence greenhouse plant response rating 0 to 100; assay type: in vivo, Avena fatua; details: POSTEMERGENCE
Procedure, shortened: as §2

sugar beet = assay: Test B preemergence/postemergence greenhouse plant response rating 0 to 10; assay type: in vivo, Beta vulgaris; details: 0 to 10 scale
Procedure, shortened: as §1

wild oat [5] = assay: as above; assay type: in vivo, Avena fatua; details: 0 to 10 scale
Procedure, shortened: as §1

barley = assay: as above; assay type: in vivo, Hordeum vulgare; details: 0 to 10 scale
Procedure, shortened: as §1

wheat [6] = assay: Test C preemergence/postemergence greenhouse plant response rating 0 to 100; assay type: in vivo, Triticum aestivum; details: POSTEMERGENCE
Procedure, shortened: as §2

wild buckwheat = assay: as above; assay type: in vivo, Polygonum convolvulus; details: POSTEMERGENCE
Procedure, shortened: as §2

blackgrass = assay: Test B preemergence/postemergence greenhouse plant response rating 0 to 10; assay type: in vivo, Alopecurus myosuroides; details: 0 to 10 scale
Procedure, shortened: as §1

downy brome = assay: Test C preemergence/postemergence greenhouse plant response rating 0 to 100; assay type: in vivo, Bromus tectorum; details: POSTEMERGENCE
Procedure, shortened: as §2

## COCN1C(=O)COc2cc(F)c(-c3nn4c(c3Br)CCCC4)cc21 [Compound 67]
cotton; POSTEMERGENCE, Rate 10 g/ha
  Plant response rating, Cotton: 10
cotton; POSTEMERGENCE, Rate 50 g/ha
  Plant response rating, Cotton: 10
cotton; PREEMERGENCE, Rate 10 g/ha
  Plant response rating, Cotton: 0
cotton; PREEMERGENCE, Rate 50 g/ha
  Plant response rating, Cotton: 1
crabgrass; 62 g/ha, 0 to 100 scale
  Plant response rating, Crabgrass: 40
crabgrass; Rate 1 g/ha
  Plant response rating (0 to 100), Crabgrass: 10
crabgrass; Rate 4 g/ha
  Plant response rating (0 to 100), Crabgrass: 20
crabgrass; Rate 16 g/ha
  Plant response rating (0 to 100), Crabgrass: 30
ryegrass; 62 g/ha, 0 to 100 scale
  Plant response rating Ryegrass: 60
ryegrass; Rate 1 g/ha
  Plant response rating (0 to 100), Ryegrass: 20
ryegrass; Rate 4 g/ha
  Plant response rating (0 to 100), Ryegrass: 40
ryegrass; Rate 16 g/ha
  Plant response rating (0 to 100), Ryegrass: 50
Sorghum [1]; 62 g/ha, 0 to 100 scale
  Plant response rating, Sorghum: 60
Sorghum [1]; Rate 1 g/ha
  Plant response rating (0 to 100), Sorghum: 20
Sorghum [1]; Rate 4 g/ha
  Plant response rating (0 to 100), Sorghum: 30
Sorghum [1]; Rate 16 g/ha
  Plant response rating (0 to 100), Sorghum: 40
lambsquarters; POSTEMERGENCE, Rate 10 g/ha
  Plant response rating, Lambsquarter: 9
lambsquarters; POSTEMERGENCE, Rate 50 g/ha
  Plant response rating, Lambsquarter: 10
lambsquarters; PREEMERGENCE, Rate 50 g/ha
  Plant response rating, Lambsquarter: 10
rape; 62 g/ha, 0 to 100 scale
  Plant response rating, Rape: 100
rape; Rate 1 g/ha
  Plant response rating (0 to 100), Rape: 70
rape; Rate 4 g/ha
  Plant response rating (0 to 100), Rape: 70
rape; Rate 16 g/ha
  Plant response rating (0 to 100), Rape: 90
bedstraw; POSTEMERGENCE, Rate 10 g/ha
  Plant response rating, Bedstraw: 8
bedstraw; POSTEMERGENCE, Rate 50 g/ha
  Plant response rating, Bedstraw: 10
bedstraw; PREEMERGENCE, Rate 10 g/ha
  Plant response rating, Bedstraw: 0
bedstraw; PREEMERGENCE, Rate 50 g/ha
  Plant response rating, Bedstraw: 3
Sorghum [2]; POSTEMERGENCE, Rate 10 g/ha
  Plant response rating, Sorghum: 5
Sorghum [2]; POSTEMERGENCE, Rate 50 g/ha
  Plant response rating, Sorghum: 6
Sorghum [2]; PREEMERGENCE, Rate 50 g/ha
  Plant response rating, Sorghum: 2
Wheat [3]; POSTEMERGENCE, Rate 10 g/ha
  Plant response rating, Wheat: 5
Wheat [3]; POSTEMERGENCE, Rate 50 g/ha
  Plant response rating, Wheat: 6
Wheat [3]; PREEMERGENCE, Rate 50 g/ha
  Plant response rating, Wheat: 0
barnyardgrass; POSTEMERGENCE section, flood test, Rate 1 g/ha
  Plant response rating (0 to 100), Barnyardgrass 2: 0
barnyardgrass; POSTEMERGENCE section, flood test, Rate 4 g/ha
  Plant response rating (0 to 100), Barnyardgrass 2: 20
barnyardgrass; Rate 16 g/ha, under POSTEMERGENCE head (flood test species)
  Plant response rating (0 to 100), Barnyardgrass 2: 90
barnyardgrass; flood test species listed under POSTEMERGENCE, 62 g/ha, 0 to 100 scale
  Plant response rating Barnyardgrass 2: 95
Wild oat [4]; 62 g/ha, 0 to 100 scale
  Plant response rating, Wild oat: 60
Wild oat [4]; Rate 1 g/ha
  Plant response rating (0 to 100), Wild oat: 10
Wild oat [4]; Rate 4 g/ha
  Plant response rating (0 to 100), Wild oat: 30
Wild oat [4]; Rate 16 g/ha
  Plant response rating (0 to 100), Wild oat: 50
Sugar beet; POSTEMERGENCE, Rate 10 g/ha
  Plant response rating, Sugar beet: 10
Sugar beet; POSTEMERGENCE, Rate 50 g/ha
  Plant response rating, Sugar beet: 10
Sugar beet; PREEMERGENCE, Rate 50 g/ha
  Plant response rating, Sugar beet: 9
Wild oat [5]; POSTEMERGENCE, Rate 10 g/ha
  Plant response rating, Wild oat: 6
Wild oat [5]; POSTEMERGENCE, Rate 50 g/ha
  Plant response rating, Wild oat: 7
Wild oat [5]; PREEMERGENCE, Rate 50 g/ha
  Plant response rating, Wild oat: 5
barley; POSTEMERGENCE, Rate 10 g/ha
  Plant response rating, Barley: 4
barley; POSTEMERGENCE, Rate 50 g/ha
  Plant response rating, Barley: 6
barley; PREEMERGENCE, Rate 10 g/ha
  Plant response rating, Barley: 0
barley; PREEMERGENCE, Rate 50 g/ha
  Plant response rating, Barley: 2
Wheat [6]; 62 g/ha, 0 to 100 scale
  Plant response rating, Wheat: 60
Wheat [6]; Rate 1 g/ha
  Plant response rating (0 to 100), Wheat: 10
Wheat [6]; Rate 4 g/ha
  Plant response rating (0 to 100), Wheat: 30
Wheat [6]; Rate 16 g/ha
  Plant response rating (0 to 100), Wheat: 50
Wild buckwheat; 62 g/ha, 0 to 100 scale
  Plant response rating, Wild buckwheat: 100
Wild buckwheat; Rate 4 g/ha
  Plant response rating (0 to 100), Wild buckwheat: 70
Wild buckwheat; Rate 16 g/ha
  Plant response rating (0 to 100), Wild buckwheat: 100
blackgrass; POSTEMERGENCE, Rate 10 g/ha
  Plant response rating, Blackgrass: 4
blackgrass; POSTEMERGENCE, Rate 50 g/ha
  Plant response rating, Blackgrass: 5
blackgrass; PREEMERGENCE, Rate 10 g/ha
  Plant response rating, Blackgrass: 3
blackgrass; PREEMERGENCE, Rate 50 g/ha
  Plant response rating, Blackgrass: 8
Downy brome; 62 g/ha, 0 to 100 scale
  Plant response rating Downy Brome: 60
Downy brome; Rate 1 g/ha
  Plant response rating (0 to 100), Downy Brome: 20
Downy brome; Rate 4 g/ha
  Plant response rating (0 to 100), Downy Brome: 50
Downy brome; Rate 16 g/ha
  Plant response rating (0 to 100), Downy Brome: 60
